Laboratory results reported in patent US20080200403A1, “9A-Carbamoyl and Thiocarbamoyl Azalides with Anti-Inflammatory Activity” (GLAXOSMITHKLINE, priority 2005, published 2008).
Like-named read-outs stand apart in the source and are kept apart here.

Assays:
Assay type in all cases: cell-based
[1] = test system: human peripheral blood mononuclear cells (PBMC); test: Human T-cell proliferation in vitro (3H-thymidine incorporation); conditions: for inhibition at 10 µM / inhibition at 50 µM: Homo sapiens, PBMC, read-out: Percentage of inhibition of proliferation of stimulated PBMC
Description: Influence of substances at two different concentrations (50 μM and 10 μM) on cell proliferation of human peripheral blood mononuclear cells (PBMC) was assessed.
Heparinized peripheral blood was obtained from healthy donors, and PBMC were isolated by Histopaque 1077 (Sigma, USA) density centrifugation at 400×g for 30 minutes. 5×10^4 cells/well were cultured for 3 days in the RPMI medium as described above, in the presence (positive control) or absence (negative control) of stimulators [PHA (2.5 μg/mL) (Sigma, USA), or both PMA (10 ng/mL) (Sigma, USA) and ionomycin (500 ng/mL) (Calbiochem, USA)], and in the presence of the test compounds, at 37° C. in an atmosphere of 5% CO2 and 90% humidity. The cells were pulsed with 1 μCi of ^3H-thymidine (Amersham, USA) per well during the last 18 h of the culture, and were harvested on the 96-well filter (Packard Bioscience, USA) using a multiple cell harvester (Packard, USA). The incorporation of ^3H-thymidine in activated cells were measured using TopCount NXT (Packard, USA).
Inhibition (as percentage) was calculated using the following formula: % inhibition=(1−(^3H)thymidine incorporation expressed in counts per minute (cpm) in sample/(^3H)thymidine incorporation expressed in cpm in positive control)×100
where positive control refers to stimulated samples, not treated with substances.

[2] = test system: IL-6; test: Inhibition of IL-6 production by stimulated human peripheral blood leukocytes in vitro; conditions: PBL; for inhibition at 10 µM / inhibition at 50 µM: Homo sapiens, Leukocyte, read-out: Percentage of inhibition of IL-6 production
In short: (§1)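 Dextran-isolated human PBL (3-5×10^6 per well) in RPMI with 10% FCS were preincubated 2 h at 37 °C with compounds at 50 μM or 10 μM final, then stimulated overnight with 2 μg/mL LPS, 1 μg/mL PMA or 120 μg/mL zymosan. Supernatant cytokines by sandwich ELISA; % inhibition versus stimulated untreated control.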

[3] = test system: IL-1α; test: Inhibition of IL-1 production by stimulated human peripheral blood leukocytes in vitro; conditions: PBL; for inhibition at 10 µM / inhibition at 50 µM: Homo sapiens, Leukocyte, read-out: Percentage of inhibition of IL-1α production
[4] = test system: IL-8; test: Inhibition of IL-8 production by stimulated human peripheral blood leukocytes in vitro; conditions: PBL; for inhibition at 10 µM / inhibition at 50 µM: Homo sapiens, Leukocyte, read-out: Percentage of inhibition of IL-8 production
In short: as §1

[5] = test system: TNF-α; test: Inhibition of TNF-α production by stimulated human peripheral blood leukocytes in vitro; conditions: PBL; for inhibition at 10 µM / inhibition at 50 µM: Homo sapiens, Leukocyte, read-out: Percentage of inhibition of TNF-α production
In short: as §1

[6] = test system: IL-2; test: Inhibition of IL-2 production by stimulated human PBMC in vitro; conditions: PHA stimulated, 3 days
Description: Heparinized peripheral blood was obtained from healthy donors, and peripheral blood mononuclear cells (PBMC) were isolated by Histopaque 1077 (Sigma, USA) density centrifugation on 400 g for 30 minutes. Collected PBMC were centrifuged in plasma on 400 g/10 min, resuspended and washed in RPMI 1640 (Institute of Immunology, Croatia) by centrifugation.
Peripheral blood mononuclear cells (PBMC), isolated as described above, were seeded in a 48-well plate at a concentration of 1×10^6 cells per well in the RPMI culture medium described above. Cells were stimulated with 10 μg/mL phytohaemagglutinin (PHA) (Sigma, USA) and incubated at 37° C., 5% CO2 in 90% humidity with tested compounds (10 and 50 μM) for 3 days. Cytokine concentrations were determined in supernatants by sandwich ELISA, using capture and detection antibodies (R&D, USA) according to the manufacturer's recommendations.
Inhibition (as percentage) was calculated using the following formula: % inhibition=(1−concentration of cytokines in sample/concentration of cytokines in positive control)×100. The positive control refers to stimulated samples, not treated with substances.

[7] = PMA + ionomycin stimulated, compound 10 μM
[8] = PMA + ionomycin stimulated, compound 50 μM
[9] = zymosan stimulated, compound 10 μM
[10] = zymosan stimulated, compound 50 μM

In the case of `CC[C@H]1OC(=O)[C@H](C)[C@@H](O[C@H]2C[C@@](C)(OC)[C@@H](O)[C@H](C)O2)[C@H](C)[C@@H](O[C@@H]2O[C@H](C)C[C@H](N(C)C)[C@H]2O)[C@](C)(O)C[C@@H](C)CN(C)[C@H](C)[C@@H](O)[C@]1(C)O` [Azithromycin, azithromycin, reference compound], the inhibition at 10 µM ([1]; PHA stimulated, compound 10 μM) is reported as 5%, the inhibition at 50 µM ([1]; PHA stimulated, compound 50 μM) is reported as 29% and the inhibition at 10 µM [1, 7] is reported as 9%. It also gave an inhibition at 50 µM [1, 8] of 31%, an inhibition at 10 µM ([2]; LPS stimulated, compound 10 μM) of 15% and an inhibition at 50 µM ([2]; LPS stimulated, compound 50 μM) of 40%. It also gave an inhibition at 10 µM ([2]; PMA stimulated, compound 10 μM) of 0%, an inhibition at 50 µM ([2]; PMA stimulated, compound 50 μM) of 0% and an inhibition at 10 µM [2, 9] of 20%. It also gave an inhibition at 50 µM [2, 10] of 75%, an inhibition at 10 µM ([3]; LPS stimulated, compound 10 μM) of 28% and an inhibition at 50 µM ([3]; LPS stimulated, compound 50 μM) of 48%. For the same compound, the inhibition at 10 µM ([3]; PMA stimulated, compound 10 μM) was 0%, the inhibition at 50 µM ([3]; PMA stimulated, compound 50 μM) was 0% and the inhibition at 10 µM [3, 9] was 20%. For the same compound, the inhibition at 50 µM [3, 10] was 75%, the inhibition at 10 µM ([4]; LPS stimulated, compound 10 μM) was 0% and the inhibition at 50 µM ([4]; LPS stimulated, compound 50 μM) was 0%. The inhibition at 10 µM ([4]; PMA stimulated, compound 10 μM) was 0%, the inhibition at 50 µM ([4]; PMA stimulated, compound 50 μM) was 0% and the inhibition at 10 µM [4, 9] was 0%. It also gave an inhibition at 50 µM [4, 10] of 0%, an inhibition at 10 µM ([5]; LPS stimulated, compound 10 μM) of 36% and an inhibition at 50 µM ([5]; LPS stimulated, compound 50 μM) of 20%. The inhibition at 10 µM ([5]; PMA stimulated, compound 10 μM) was 0%, the inhibition at 50 µM ([5]; PMA stimulated, compound 50 μM) was 0% and the inhibition at 10 µM [5, 9] was 6%. For the same compound, the inhibition at 50 µM [5, 10] was 64%.

For `CCC1OC(=O)C(C)C(OC2CC(C)(OC)C(O)C(C)O2)C(C)C(OC2OC(C)CC(N(C)C)C2O)C(C)(O)CC(C)CN(C(=S)Nc2cccc(F)c2)C(C)C(O)C1(C)O` (stereo not shown) [Compound 3], the “Percentage of inhibition of proliferation of stimulated PBMC” value ([1]; PHA stimulated, compound 10 μM) was 26%, the “Percentage of inhibition of proliferation of stimulated PBMC” value ([1]; PHA stimulated, compound 50 μM) was 100% and the “Percentage of inhibition of proliferation of stimulated PBMC” value [1, 7] was 23%. For the same compound, the “Percentage of inhibition of proliferation of stimulated PBMC” value [1, 8] was 92%, the “Percentage of inhibition of IL-2 production” value ([6]; compound 10 μM) was 86% and the “Percentage of inhibition of IL-2 production” value ([6]; compound 50 μM) was 98%. The “Percentage of inhibition of IL-6 production” value ([2]; LPS stimulated, compound 10 μM) was 13%, the “Percentage of inhibition of IL-6 production” value ([2]; LPS stimulated, compound 50 μM) was 79% and the “Percentage of inhibition of IL-6 production” value ([2]; PMA stimulated, compound 10 μM) was 24%. The “Percentage of inhibition of IL-6 production” value ([2]; PMA stimulated, compound 50 μM) was 9%, the “Percentage of inhibition of IL-6 production” value [2, 9] was 59% and the “Percentage of inhibition of IL-6 production” value [2, 10] was 81%. For the same compound, the “Percentage of inhibition of IL-1α production” value ([3]; LPS stimulated, compound 10 μM) was 52%, the “Percentage of inhibition of IL-1α production” value ([3]; LPS stimulated, compound 50 μM) was 30% and the “Percentage of inhibition of IL-1α production” value ([3]; PMA stimulated, compound 10 μM) was 4%. For the same compound, the “Percentage of inhibition of IL-1α production” value ([3]; PMA stimulated, compound 50 μM) was 0%, the “Percentage of inhibition of IL-1α production” value [3, 9] was 75% and the “Percentage of inhibition of IL-1α production” value [3, 10] was 74%. The “Percentage of inhibition of IL-8 production” value ([4]; LPS stimulated, compound 10 μM) was 38%, the “Percentage of inhibition of IL-8 production” value ([4]; LPS stimulated, compound 50 μM) was 81% and the “Percentage of inhibition of IL-8 production” value ([4]; PMA stimulated, compound 10 μM) was 61%. The “Percentage of inhibition of IL-8 production” value ([4]; PMA stimulated, compound 50 μM) was 47%, the “Percentage of inhibition of IL-8 production” value [4, 9] was 40% and the “Percentage of inhibition of IL-8 production” value [4, 10] was 88%. For the same compound, the “Percentage of inhibition of TNF-α production” value ([5]; LPS stimulated, compound 10 μM) was 45%, the “Percentage of inhibition of TNF-α production” value ([5]; LPS stimulated, compound 50 μM) was 74% and the “Percentage of inhibition of TNF-α production” value ([5]; PMA stimulated, compound 10 μM) was 37%. The “Percentage of inhibition of TNF-α production” value ([5]; PMA stimulated, compound 50 μM) was 75%, the “Percentage of inhibition of TNF-α production” value [5, 9] was 71% and the “Percentage of inhibition of TNF-α production” value [5, 10] was 94%.
